# Target: T1, FGFR3 protein (Homo sapiens, UniProt P22607)
# T1 construct: purchased Reaction Biology 1068
# Assay: FGFR3 enzyme assay (KinEASE-TK HTRF kinase assay)
# Assay type: biochemical
# Settings: 0.25 nM enzyme, ATP at Km, 15 min pre-incubation on ice, 30 min at 30° C.
# Description: FGFR3 and FGFR1 Enzyme Assay
# Enzyme activity was monitored using the KinEASE™-TK Assay Kit (Cisflio, Cat. No. 62TK0PEC) according to the manufacturer's instructions. All assays were performed at the respective KmATP for each kinase in KinEASE™ Kinase Buffer.
# Titration of compounds were performed in a half-log manner in 100% dimethyl sulfoxide (DMSO) starting at 1 uM. Prior to the initiation of the reaction by adenosine triphosphate (ATP), FGFR1 protein and compounds were pre-incubated for 15 minutes at room temperature, and FGFR3 protein and compounds were pre-incubated on ice for 15 minutes. Reactions proceeded for 30 min at 30° C. Plates were quenched by the addition of the Anti-TK cryptate antibody/Streptavidin-XL665 mixture.
# Ratios were converted to a percent of control (POC) using a ratiometric emission factor. One hundred POC was determined using no test compound, and 0 POC was determined in the presence of 1 uM of an appropriate control inhibitor.
# T1 sequence (P22607 23-806): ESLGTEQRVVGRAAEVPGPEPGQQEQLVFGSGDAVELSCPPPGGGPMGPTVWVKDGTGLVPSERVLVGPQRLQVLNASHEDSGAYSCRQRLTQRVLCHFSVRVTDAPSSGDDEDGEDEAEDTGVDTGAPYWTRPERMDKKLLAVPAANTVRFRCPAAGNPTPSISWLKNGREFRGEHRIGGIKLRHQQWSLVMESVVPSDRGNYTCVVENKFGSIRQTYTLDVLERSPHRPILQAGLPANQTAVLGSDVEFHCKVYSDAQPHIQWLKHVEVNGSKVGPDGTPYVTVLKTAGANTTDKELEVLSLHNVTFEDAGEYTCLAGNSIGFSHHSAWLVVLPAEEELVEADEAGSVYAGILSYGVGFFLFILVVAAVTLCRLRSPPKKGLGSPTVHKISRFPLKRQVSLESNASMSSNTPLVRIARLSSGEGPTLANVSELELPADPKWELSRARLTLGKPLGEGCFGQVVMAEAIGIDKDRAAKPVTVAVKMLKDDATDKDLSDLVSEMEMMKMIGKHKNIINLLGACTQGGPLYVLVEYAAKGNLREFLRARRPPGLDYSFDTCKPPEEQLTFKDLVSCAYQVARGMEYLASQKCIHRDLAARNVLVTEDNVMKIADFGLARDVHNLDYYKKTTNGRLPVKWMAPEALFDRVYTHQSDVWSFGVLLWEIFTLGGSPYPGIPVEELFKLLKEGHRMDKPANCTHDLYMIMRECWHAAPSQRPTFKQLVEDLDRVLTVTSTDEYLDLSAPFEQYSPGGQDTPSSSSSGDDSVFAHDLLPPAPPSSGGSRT
row,IC50 [µM],Structure (SMILES)
1,< 0.05,"Cc1c(-c2cc(OC(CO)c3ccc(F)cn3)c3c(Cl)cnn3c2)nnn1[C@H]1C[C@@H](N2CC3COCC(C2)N3C#N)C1 (single isomer, unassigned) [Example 280]"
2,< 0.05,"Cc1c(-c2cc(O[C@H](C)c3ccccn3)n3c(C#N)cnc3c2)nnn1C1CCN(C#N)C(C2CC2)C1 (single isomer, unassigned) [Example 281]"
3,< 0.05,"Cc1c(-c2cc(OC(C)c3cncc(C(F)(F)F)c3)n3c(C#N)cnc3c2)nnn1C1CCN(C#N)CC1 (single isomer, unassigned; isomer 1) [Example 41, 7-[1-(1-Cyano-4-piperidyl)-5-methyl-triazol-4-yl]-5-[1-[5-(trifluoromethyl)-3-pyridyl]ethoxy]imidazo[1,2-a]pyridine-3-carbonitrile, Isomer 1]"
4,< 0.05,"Cc1c(-c2cc(OC(CO)c3ccc(F)cn3)c3c(C#N)cnn3c2)cnn1C1CCN(C#N)CC1 (single isomer, unassigned; isomer 1) [Example 43, 6-[1-(1-Cyano-4-piperidyl)-5-methyl-pyrazol-4-yl]-4-[1-(5-fluoro-2-pyridyl)-2-hydroxy-ethoxy]pyrazolo[1,5-a]pyridine-3-carbonitrile, Isomer 1]"
5,< 0.05,"Cc1c(-c2cc(OC(c3ccc(F)cn3)C(F)(F)F)n3c(C#N)cnc3c2)nnn1C1CCN(C#N)CC1 (single isomer, unassigned; isomer 1) [Example 48, 7-[1-(1-Cyano-4-piperidyl)-5-methyl-triazol-4-yl]-5-[2,2,2-trifluoro-1-(5-fluoro-2-pyridyl)ethoxy]imidazo[1,2-a]pyridine-3-carbonitrile, Isomer 1]"
6,< 0.05,"COCC(Oc1cc(-c2nnn(C3CCN(C#N)CC3)c2C)cc2ncc(C#N)n12)c1ccc(F)cn1 (single isomer, unassigned; isomer 1) [Example 49, 7-[1-(1-Cyano-4-piperidyl)-5-methyl-triazol-4-yl]-5-[1-(5-fluoro-2-pyridyl)-2-methoxy-ethoxy]imidazo[1,2-a]pyridine-3-carbonitrile, Isomer 1]"
7,< 0.05,"CCC(Oc1cc(-c2nnn(C3CCN(C#N)CC3)c2C)cc2ncc(C#N)n12)c1ccc(F)cn1 (single isomer, unassigned; isomer 1) [Example 51, 7-[1-(1-Cyano-4-piperidyl)-5-methyl-triazol-4-yl]-5-[1-(5-fluoro-2-pyridyl)propoxy]imidazo[1,2-a]pyridine-3-carbonitrile, Isomer 1]"
8,< 0.05,"COCC(Oc1cc(-c2nnn(C3CCN(C#N)CC3)c2C)cn2ncc(C#N)c12)c1ccc(F)cn1 (single isomer, unassigned; isomer 1) [Example 53, 6-[1-(1-Cyano-4-piperidyl)-5-methyl-triazol-4-yl]-4-[1-(5-fluoro-2-pyridyl)-2-methoxy-ethoxy]pyrazolo[1,5-a]pyridine-3-carbonitrile, Isomer 1]"
9,< 0.05,"COCC(Oc1cc(-c2nnn(C3CCN(C#N)CC3)c2C)cn2ncc(C#N)c12)c1cncc(C(F)(F)F)c1 (single isomer, unassigned; isomer 1) [Example 61, 6-[1-(1-cyano-4-piperidyl)-5-methyl-triazol-4-yl]-4-[2-methoxy-1-[5-(trifluoromethyl)-3-pyridyl]ethoxy]pyrazolo [1,5-a]pyridine-3-carbonitrile, Isomer 1]"
10,< 0.05,"Cc1c(-c2cc(OC(CO)c3ccc(F)cn3)n3c(C#N)cnc3c2)nnn1C1CCN(C#N)CC1 (single isomer, unassigned; isomer 1) [Example 63, 7-[1-(1-Cyano-4-piperidyl)-5-methyl-triazol-4-yl]-5-[1-(5-fluoro-2-pyridyl)-2-hydroxy-ethoxy]imidazo[1,2-a]pyridine-3-carbonitrile, Isomer 1]"
11,< 0.05,"Cc1c(-c2cc(OC(C)c3cc(Cl)cnn3)c3c(C#N)cnn3c2)nnn1C1CCN(C#N)CC1 (single isomer, unassigned; isomer 1) [Example 68, 4-[1-(5-Chloropyridazin-3-yl)ethoxy]-6-[1-(1-cyano-4-piperidyl)-5-methyl-triazol-4-yl]pyrazolo[1,5-a]pyridine-3-carbonitrile, Isomer 1]"
12,< 0.05,"Cc1c(-c2cc(OC(C)c3cccc4cnsc34)c3c(C#N)cnn3c2)nnn1C1CCN(C#N)CC1 (single isomer, unassigned; isomer 1) [Example 79, 4-[1-(1,2-benzothiazol-7-yl)ethoxy]-6-[1-(1-cyano-4-piperidyl)-5-methyl-triazol-4-yl]pyrazolo[1,5-a]pyridine-3-carbonitrile, Isomer 1]"
13,< 0.05,"Cc1c(-c2cc(OC(CO)c3ccc(F)cn3)n3c(Cl)cnc3c2)nnn1C1CCN(C#N)CC1 (single isomer, unassigned; isomer 2) [Example 47, 4-[4-[3-Chloro-5-[1-(5-fluoro-2-pyridyl)-2-hydroxy-ethoxy]imidazo[1,2-a]pyidine-7-yl]-5-methyl-triazol-1-yl]piperidine-1-carbonitrile, Isomer 2]"
14,< 0.1,"Cc1c(-c2cc(OC(C)c3ccccc3C(=O)N(C)C)c3c(C#N)cnn3c2)nnn1C1CCN(C#N)CC1 (single isomer, unassigned; isomer 2) [Example 75, 2-[1-[3-cyano-6-[1-(1-cyano-4-piperidyl)-5-methyl-triazol-4-yl]pyrazolo[1,5-a]pyridin-4-yl]oxyethyl]-N,N-dimethyl-benzamide, Isomer 2]"
15,< 0.1,"Cc1c(-c2cc(OC(C)c3ccccc3S(C)(=O)=O)c3c(C#N)cnn3c2)cnn1C1CCN(C#N)CC1 (single isomer, unassigned; isomer 2) [Example 77, 6-[1-(1-Cyano-4-piperidyl)-5-methyl-pyrazol-4-yl]-4-[1-(2-methylsulfonylphenyl)ethoxy]pyrazolo[1,5-a]pyridine-3-carbonitrile, Isomer 2]"
16,< 0.1,"Cc1c(-c2cc(OC(C)c3cc(C(F)(F)F)cnc3N3CCOCC3)c3c(C#N)cnn3c2)nnn1C1CCN(C#N)CC1 (centres unmarked) [Example 13, 6-[1-(1-Cyano-4-piperidyl)-5-methyl-triazol-4-yl]-4-[1-[2-morpholino-5-(trifluoromethyl)-3-pyridyl]ethoxy]pyrazolo [1,5-a]pyridine-3-carbonitrile]"
17,< 0.05,"Cc1c(-c2cc(OC(C)c3cncc4cc(F)ccc34)c3c(C#N)cnn3c2)nnn1C1CCN(C#N)CC1 (centres unmarked) [Example 21, 6-[1-(1-Cyano-4-piperidyl)-5-methyl-triazol-4-yl]-4-[1-(7-fluoro-4-isoquinolyl)ethoxy] pyrazolo[1,5-a] pyridine-3-carbonitrile]"
18,< 0.05,"Cc1c(-c2cc(OC(CF)c3ccc(F)cn3)c3c(C#N)cnn3c2)nnn1C1CCN(C#N)CC1 (centres unmarked) [Example 22, 6-[1-(1-Cyano-4-piperidyl)-5-methyl-triazol-4-yl]-4-[2-fluoro-1-(5-fluoro-2-pyridyl)ethoxy]pyrazolo [1,5-a]pyridine-3-carbonitrile]"
19,< 0.05,"Cc1c(-c2cc(OC(C)c3cncc4ccccc34)c3c(C#N)cnn3c2)nnn1C1CCN(C#N)CC1 (centres unmarked) [Example 24, 6-[1-(1-Cyano-4-piperidyl)-5-methyl-triazol-4-yl]-4-[1-(4-isoquinolyl)ethoxy] pyrazolo[1,5-a] pyridine-3-carbonitrile]"
20,< 0.05,"Cc1c(-c2cc(OC(c3ccc(F)cn3)C3(F)CC3)c3c(C#N)cnn3c2)nnn1C1CCN(C#N)CC1 (centres unmarked) [Example 26, 6-[1-(1-Cyano-4-piperidyl)-5-methyl-triazol-4-yl]-4-[(1-fluorocyclopropyl)-(5-fluoro-2-pyridyl)methoxy]pyrazolo [1,5-a]pyridine-3-carbonitrile]"
21,< 0.05,"Cc1c(-c2cc(O[C@H](C)c3ccccn3)c3c(C#N)cnn3c2)nnn1C1CCN(C#N)CC1 [Example 169, 4-(4-[3-Cyano-4-[(1R)-1-(pyridin-2-yl)ethoxy]pyrazolo[1,5-a]pyridin-6-yl]-5-methyl-1,2,3-triazol-1-yl)piperidine-1-carbonitrile]"
22,< 0.05,"Cc1c(-c2cc(O[C@H](C)c3ccc(F)cn3)n3c(C#N)cnc3c2)nnn1C1CCN(C#N)CC1 [Example 170, 4-(4-[3-Cyano-5-[(1R)-1-(5-fluoropyridin-2-yl)ethoxy]imidazo[1,2-a]pyridin-7-yl]-5-methyl-1,2,3-triazol-1-yl)piperidine-1-carbonitrile]"
23,< 0.05,"COc1cc(-c2cnn(C3CC4(CCN(C#N)CC4)C3)c2C)cn2ncc(C#N)c12 [Example 171, 2-(4-[3-Cyano-4-methoxypyrazolo[1,5-a]pyridin-6-yl]-5-methylpyrazol-1-yl)-7-azaspiro[3.5]nonane-7-carbonitrile]"
24,< 0.05,"COc1cc(-c2cnn([C@H]3C[C@H]4CC[C@@H](C3)N4C#N)c2C)cn2ncc(C#N)c12 [Example 183, 6-(1-((1R,3r,5S)-8-Cyano-8-azabicyclo[3.2.1]octan-3-yl)-5-methyl-1H-pyrazol-4-yl)-4-methoxypyrazolo[1,5-a]pyridine-3-carbonitrile]"
25,< 0.05,"Cc1c(-c2cc(O[C@H](C)c3ccnn3C)c3c(C#N)cnn3c2)cnn1C1CCN(C#N)CC1 [Example 189, 4-(4-[3-Cyano-4-[(1R)-1-(2-methylpyrazol-3-yl)ethoxy]pyrazolo [1,5-a]pyridin-6-yl]-5-methylpyrazol-1-yl)piperidine-1-carbonitrile]"
26,< 0.05,"Cc1c(-c2cc(O[C@H](C)C3CCC3)c3c(C#N)cnn3c2)cnn1C1CCN(C#N)CC1 [Example 195, 4-(4-[3-cyano-4-[(1R)-1-cyclobutylethoxy]pyrazolo[1,5-a]pyridin-6-yl]-5-methylpyrazol-1-yl)piperidine-1-carbonitrile]"
